{
  "source": "patent US20240252689A1",
  "about": "“POLY-ADP RIBOSE (PAR) TRACKER OPTIMIZED SPLIT-PROTEIN REASSEMBLY PAR DETECTION REAGENTS” (THE BOARD OF REGENTS OF THE UNIVERSITY OF TEXAS SYSTEM, priority 2021, published 2024)",
  "key": {"PARP-1 activation": {"test_system": "PARP-1 activation", "test": "Live-cell luminescence assay with PAR-T NanoLuc, UV-induced PARP-1 activation in MDA-MB-231-Luc cells", "format": "cell-based, human", "settings": "for time-dependent, UV-mediated increase in PAR-T NanoLuc signal (PARP-1 activation): time course after UV radiation, 20 μM for 2 hr prior to UV", "method": "Each point in the graph represents the mean±SEM of the relative levels of luminescence from PAR-T NanoLuc normalized to full Nano luciferase (n=3).\nFIG. 11B provides quantitative analysis of Western blot analysis and bioluminescence imaging (shown in FIG. 4B) of 231-PAR-T NanoLuc cells treated with 20 μM Niraparib or 20 μM PARG inhibitor for 2 hr prior to UV radiation. Each bar in the graph represents the mean±SEM of the relative intensities (n=3, one-way ANOVA, *p<0.05, **p<0.001, and ***p<0.0001; ns=not significant).\n(§1) Cells were treated with various inhibitors as described herein. For inhibition of nuclear PARPs, cells were treated with PJ-34 ([…]; Enzo, ALX-270) or Olaparib (20 µM; MedChem Express, HY-10162) for 2 hours. For inhibition of PARG, cells were treated with PDD 00017273 (20 µM; MedChem Express, HY-108360) for 2 hours. For UV-induced DNA damage, the cells were harvested 15 minutes after treatment with 50 mJ/cm2 UV irradiation.\nDNA damaging agents such as UV irradiation and y irradiation activate PARP-1 and cause PARylation of itself and other DNA damage repair proteins that are recruited to the damage sites. […] MDA-MB-231-Luc cells were subjected to doxycycline-induced expression of PAR-T, and then treated UV radiation. […] In a similar manner, a time course of UV-mediated PARP-1 activation using live cell luminescence assay with the PAR-T NanoLuc sensor was performed. The MDA-MB-231 cells were subjected to Dox-induced expression of PAR-T NanoLuc or intact Nano luciferase and then exposed the cells to UV radiation.\nNext, a set of assays was performed to compare the performance of the PAR-T sensors to conventional PAR detection reagents (WWE-Fc and PAR antibody) in a variety of assays. The following assays were compared (1) Western blotting with WWE-Fc versus fluorescence assay with PAR-T ddGFP, which were performed in conjunction with ARH3-mediated degradation of PAR in vitro (FIG. 11A); (2) Western blotting with WWE-Fc versus live-cell luciferase assay using PAR-T NanoLuc, which were performed in conjunction with UV-induced DNA damage in MDA-MB-231 cells (FIG. 11B); (3) enzyme-linked immunosorbent assay (ELISA) with PAR antibody versus fluorescence assay with PAR-T ddGFP, which were performed using immobilized PAR (FIG. 11C); and (4) immunofluorescence with WWE-Fc versus live-cell imaging using PAR-T ddGFP, which were performed using H2O2-mediated PARP-1 activation in 293T cells (FIG. 11D and FIG. 11E)."}, "PARylation [1]": {"test_system": "PARylation", "test": "Live cell imaging of 3D cancer spheroids of MCF7 cells expressing PAR-T ddGFP", "format": "cell-based", "settings": "for distribution of PARylation (PAR) throughout the spheroid: MCF7 3D cancer spheroids", "method": "FIGS. 8C and 8D provides representative images (8C) and quantification (8D) of Z-projections of cancer spheroids formed using MCF-7 cells subjected to Dox-induced expression of the PAR-T ddGFP. The spheroids were treated with 20 µM Niraparib and live-cell imaging was performed at the indicated times. (Left) The spheroids were divided into ‘outer’ and ‘core’ sections for quantification as indicated by the white circles. (Right) Enlargement of the indicated areas from the left panels (yellow, core; pink, outer) as indicated.\nCancers are heterogenous tissues with spatial variation in nutrient availability, and stress. Since PARylation is enhanced by stressors such as DNA damage, another experiment tested whether there was any spatial variation in PARylation levels. Live cell imaging was performed in 3D cancer spheroids using MCF7 cells expressing the WWE based PAR-T sensors. […] A time course of Niraparib treatment in 3D cancer spheroids was performed to visualize spatio-temporal changes in PAR levels over time."}, "PARylation [2]": {"test_system": "PARylation", "test": "PAR-T luminescence in MDA-MB-231-luc xenograft tumors", "format": "in vivo", "settings": "xenograft tumors in mice", "method": "In the next experiment, the utility of luminescent PAR-T sensor to measure the levels of PARylation in vivo was tested. Xenograft tumors were established using the MDA-MB-231-luc cells the expression of PAR-T was induced by doxycycline (FIG. 5A). […] The luminescence from PAR-T was normalized to the firefly luminescence to confidently measure the differences in PARylation, while accounting for the variability in tumor sizes."}, "PARylation [3]": {"test_system": "PARylation", "test": "Recombinant PAR-T sensors incubated with lysates from treated Hela cells", "format": "cell-based", "method": "as §1\nCells were cultured and treated as described above before the preparation of cell extracts. […]\nDimerization-dependent GFP is a genetically encoded sensor that was initially developed to study protein interactions. In this system, a pair of a quenched GFP (ddGFPA) and a non-fluorogenic GFP (ddGFPB) form a heterodimer that can result in improved fluorescence. In this example, a ddGFP-based fluorescence sensor (fluorescent PAR-Trackers or PAR-T) was designed to allow for live cell imaging, with high signal-noise ratio. To achieve this, the various ADPR reader domains (ARBDs) were fused to ddGFP-A/B and purified as recombinant proteins (FIG. 1A, FIG. 1B, FIG. 6A). […] Similarly, degradation of PAR chains by ARH3 was detected in a time (FIG. 1F and FIG. 1G) and dose (FIG. 6H) dependent way. […]"}, "PAR accumulation": {"test_system": "PAR accumulation", "test": "Time course of PAR-T NanoLuc bioluminescence of breast cancer cells injected into mice", "format": "in vivo, C57/BL6 mice", "settings": "24-hr time course post injection", "text": "FIGS. 5D to 5E show analysis of a time course of bioluminescence imaging of 231-PAR-T NanoLuc cells transplanted into mice and treated with PARG inhibitor. Bioluminescence imaging (5D) with the region of interest expanded (5E). Each point in the graph in (5F) represents the mean±SEM of the relative levels of luminescence of NanoLuc of PAR-T NanoLuc (n=4).\nPAR accumulation in breast cancer cells injected into C57/BL6 mice without establishing xenograft tumors over a 24-hr time course post injection, with or without PARG inhibitor treatment (FIG. 5D, FIG. 5E and FIG. 5F) was measured. PAR accumulation was readily detected in the breast cancer cells injected into the mice in the absence of treatment."}},
  "data": [
    {"compound": "NC(=O)c1cccc2cn(-c3ccc([C@@H]4CCCNC4)cc3)nc12", "note": "[Niraparib]", "values": [
      {"measurement": "decrease in PAR-T NanoLuc signal", "setting": "PARP-1 activation; UV-treated cells pre-treated with compound, versus basal", "value": "greater"},
      {"measurement": "decrease in PAR-T NanoLuc signal", "setting": "PARP-1 activation; basal (-UV) conditions, 20 μM, 2 hr", "value": 50, "unit": "%"},
      {"measurement": "time-dependent, UV-mediated increase in PAR-T NanoLuc signal (PARP-1 activation)", "setting": "PARP-1 activation", "value": "but not in Niraparib-treated cells"},
      {"measurement": "distribution of PARylation (PAR) throughout the spheroid", "setting": "PARylation [1]", "value": "inhibited"},
      {"measurement": "PAR levels in cells at the core versus outer layer of the spheroid", "setting": "PARylation [1]; time course, 20 µM Niraparib", "value": "relatively resistant"}
    ]},
    {"compound": "O=C(c1cc(Cc2n[nH]c(=O)c3ccccc23)ccc1F)N1CCN(C(=O)C2CC2)CC1", "note": "[olaparib, Olaparib]", "values": [
      {"measurement": "distribution of PARylation (PAR) throughout the spheroid", "setting": "PARylation [1]; WWE based PAR-T sensors, 20 uM Niraparib", "value": "inhibited"}
    ]},
    {"compound": "PDD 00017273 [PARG inhibitor]", "values": [
      {"measurement": "PARylation detected by PAR-T luminescence normalized to firefly luminescence", "setting": "PARylation [2]", "value": "increase in PARylation"},
      {"measurement": "fluorescence of recombinant PAR-T sensors with cell lysates", "setting": "PARylation [3]; lysates from cells treated with both H2O2 and PARG inhibitor", "value": "pronounced increase in fluorescence"},
      {"measurement": "fluorescence of recombinant PAR-T sensors with cell lysates", "setting": "PARylation [3]; lysates from treated Hela cells", "value": "increase in fluorescence"},
      {"measurement": "PAR-T luminescence", "setting": "PARP-1 activation; UV radiation of treated cells", "value": "enhanced PAR-T luminescence"},
      {"measurement": "time-dependent, UV-mediated increase in PAR-T NanoLuc signal (PARP-1 activation)", "setting": "PARP-1 activation", "value": "more spontaneous"},
      {"measurement": "luminescence from PAR-T NanoLuc", "setting": "PAR accumulation", "value": "increased significantly by 6 hr and then diminished by 24 hr"}
    ]}
  ]
}
